Test results published in PMC12705620 (Frontiers in Pharmacology, 2025).

What was measured:
[1] = test system: S. aureus LUH14616 (MRSA); test: Ex vivo human skin wound infection model; set-up: species or system Staphylococcus aureus; conditions: 0.5% (v/v) in 70% ethanol, positive control, 4 h, p < 0.001
Text: Human skin from 3 donors was obtained via the Residual Tissue Biobank of the Red Cross Hospital (Beverwijk, Netherlands). The use of these coded, post-operative residual tissue samples was approved by patients through the informed opt-out-plus protocol of the Red Cross Hospital Skin ([Code-of-Conduct-for-Health-Research, 2022]) and processed for an ex vivo wound infection model as described ([Dijksteel et al., 2020]). The Wounded skin grafts were sectioned into approximately 1 cm^2 samples using a sterile scalpel and were decontaminated by immersion in 70% ethanol for 30 min, followed by three PBS washes. Samples were placed dermis-down and wound-side-up on stainless steel grids with central indentations, positioned in 12-well plates, and cultured at the air–liquid interface in DMEM at 37 °C and 5% CO2. To confine reagents to the wound area, a resin barrier (OpalDam; Ultradent) was applied to the wounded area and polymerized using a hand-held UV light (Valo X) for 10 s. The wounds were then topically infected with 10 µL of S. aureus LUH14616 suspension of 1 × 10^7 CFU/mL (final dose: 1 × 10^5 CFU/graft) in PBS for 1 h, followed by topical application of 10 µL of peptide solution for 4 h. Chlorhexidine (0.5% (v/v) in 70% ethanol; Entick B.V.) and PBS were used as positive and negative controls, respectively. After treatment, tissue samples were transferred to polypropylene vials containing 1 mL PBS supplemented with 0.025% (v/v) SPS and a 7 mm stainless steel bead. Homogenization was performed using a MagnaLyser System (Roche) with three 30-s cycles at 7,000 rpm, with 30 s of cooling on ice between cycles. Homogenates were 10-fold serially diluted in PBS, and 100 µL aliquots were plated on BA plates. CFUs were enumerated after overnight incubation at 37 °C.

[2] = test system: Staphylococcus aureus JAR060131; format: cell-based; conditions: JAR060131, 18 h
Experimental: Bactericidal activity was assessed as previously described ([Breij et al., 2018]). Briefly, mid-logarithmic phase bacterial cultures were diluted in RPMI to 1 × 10^7 CFU/mL. For fungicidal assays, fungal cultures were prepared in RPMI supplemented with 1% glucose (Merck) and diluted to 2–5 × 10^5 CFU/mL. For each condition, 10 µL of the suspension was added to 90 µL of peptide-containing RPMI or RPMI supplemented with 50% (v/v) pooled human plasma (hereafter referred to as 50% plasma; final bacterial concentration 1 × 10^6 CFU/mL, final fungal concentration 2–5 × 10^4 CFU/mL. Human plasma from four healthy volunteers (Sanquin, Netherlands) was pooled, and stored at −20 °C until use. Peptides were tested similarly for fungicidal activity, after 18 h of incubation at 37 °C with shaking (120 rpm) under humidified conditions, bacterial and fungal survival was determined by plating 10 µL aliquots onto BA plates. Assays were performed in duplicate in round-bottom polypropylene microtiter plates (Costar) and repeated independently three times. Untreated controls included bacteria exposed to RPMI alone or RPMI with 50% plasma. Bactericidal and fungicidal activity was expressed as the lethal concentration 99.9% (LC99.9), defined as the lowest peptide concentration causing ≥99.9% reduction in numbers of CFU compared to the initial inoculum.

HaCaT keratinocytes = test: In vitro scratch wound assay; format: cell-based, human; conditions: 1 µM peptide (TGF-β 20 ng/mL)
Experimental: Cell migration following injury was assessed using an in vitro scratch assay with the IncuCyte wound maker tool (Sartorius). HaCaT keratinocytes were seeded in 96-well ImageLock plates (Sartorius) at 3 × 10^5 cells/well (100 µL) in DMEM supplemented with 10% FBS and incubated at 37 °C, 5% CO2 for 48 h, with medium change at 24 h, until confluence. Uniform scratches were introduced using the wound maker tool according to the manufacturer’s instructions. After wounding, wells were washed twice with 100 µL PBS to remove cell debris. Cells were then treated with 1 µM peptides in serum-free DMEM, to focus specifically on cell migration from the wound edges. The absence of serum minimizes interference with peptide activity. Transforming growth factor-beta (TGF-β; human; 20 ng/mL; Sigma-Aldrich) and 5% dimethyl sulfoxide (DMSO; Sigma-Aldrich) were used as positive and negative controls, respectively. Additional controls included serum-free DMEM (no-treatment control) and 50% (v/v) acetonitrile in Milli-Q water as solvent control. Wound closure was monitored using the IncuCyte S3 live-cell imaging system (Sartorius) with bright-field microscopy. Images were captured every 6 h for up to 60 h. Image analysis was performed using ImageJ software (version 1.53t, NIH, USA) with the “Wound Healing” plugin, as described by Suarez Arnedo et al. ([Suarez-Arnedo et al., 2020]). Quantitative parameters included wound width (µm), percent wound closure, and migration rate (µm/hour).

Molecule: [H]/N=C(\N/C(=N/[H])NCCCCCCNC(=N)NC(=N)Nc1ccc(Cl)cc1)Nc1ccc(Cl)cc1 [Chlorhexidine, reference compound]
- Reduction of bacterial burden (CFU counts) [1]: significantly reduced bacterial burden

Molecule: N=C(N)NCCC[C@H](NC(=O)[C@H](Cc1c[nH]c2ccccc12)NC(=O)[C@H](CCC(N)=O)NC(=O)[C@H](Cc1c[nH]c2ccccc12)NC(=O)[C@H](CCCNC(=N)N)NC(=O)[C@@H](N)CCCNC(=N)N)C(=O)NCC(CNC(=O)[C@H](CCCNC(=N)N)NC(=O)[C@H](Cc1c[nH]c2ccccc12)NC(=O)[C@H](CCC(N)=O)NC(=O)[C@H](Cc1c[nH]c2ccccc12)NC(=O)[C@H](CCCNC(=N)N)NC(=O)[C@@H](N)CCCNC(=N)N)OCC(=O)NCCCCCC(=O)N[C@@H](CSSC[C@H](NC(=O)CCCCCNC(=O)COC(CNC(=O)[C@H](CCCNC(=N)N)NC(=O)[C@H](Cc1c[nH]c2ccccc12)NC(=O)[C@H](CCC(N)=O)NC(=O)[C@H](Cc1c[nH]c2ccccc12)NC(=O)[C@H](CCCNC(=N)N)NC(=O)[C@@H](N)CCCNC(=N)N)CNC(=O)[C@H](CCCNC(=N)N)NC(=O)[C@H](Cc1c[nH]c2ccccc12)NC(=O)[C@H](CCC(N)=O)NC(=O)[C@H](Cc1c[nH]c2ccccc12)NC(=O)[C@H](CCCNC(=N)N)NC(=O)[C@@H](N)CCCNC(=N)N)C(N)=O)C(N)=O (some centres unmarked) [LBT-2]
- LC99.9 [2]: 0.47 µM

Molecule: TGF-β
- Percentage of wound closure (HaCaT keratinocytes; 60 h (legend: 64 h), versus no treatment): near-complete wound closure
- Wound width reduction (HaCaT keratinocytes; serum-free DMEM, versus untreated control): highest wound width reduction
- Rate of cell migration (HaCaT keratinocytes; versus no treatment): faster wound closure
